Reference: ChEMBL document CHEMBL4028815, “Novel phosphonate analogs of sulforaphane: Synthesis, in vitro and in vivo anticancer activity” (Eur J Med Chem, 2017)
Active and inactive are the calls of the source. No cut-off for these calls is given here.

Legend:
[1] = system: 4T1; test: Anti-tumor activity against mouse 4T1 cells implanted in BALB/c mdb mouse assessed as tumor growth inhibition at 25 umol/kg, ip administered 3 times weekly measured on day 29 post cell innoculum relative to control; settings: 4T1, ip, 696 h, read-out: TGI
[2] = system: LoVo; test: Potency index, ratio of benzyl isothiocyanate IC50 to compound IC50 for human LoVo cells; type: functional
[3] = Potency index, ratio of benzyl isothiocyanate IC50 to compound IC50 for human LoVo/DX cell; type: functional
[4] = system: LoVo; test: Cytotoxicity against human LoVo cells after 72 hrs by sulforhodamine B assay; type: functional, cell-based
[5] = Cytotoxicity against human LoVo/DX cells after 72 hrs by sulforhodamine B assay; type: functional, cell-based
[6] = Potency index, ratio of sulforaphane IC50 to compound IC50 for human LoVo/DX cell; type: functional
[7] = system: LoVo; test: Potency index, ratio of sulforaphane IC50 to compound IC50 for human LoVo cells; type: functional
[8] = system: Mus musculus; test: Toxicity in BALB/c mdb mouse implanted with mouse 4T1 cells assessed as WBC level at 450 umol/kg, ip administered five times weekly measured at 29 day post cell innoculum (reference value: 212.3 +/- 82.8 10^3/uL); type: organism-based; settings: in vivo, 696 h
[9] = system: LoVo; test: Induction of apoptosis in human LoVo cells assessed as late apoptotic cells at 15 uM after 24 hrs by APC-Annexin-V/propidium iodide staining based flow cytometric method relative to control; type: functional
[10] = system: A549; test: Cytotoxicity against human A549 cells after 72 hrs by sulforhodamine B assay; type: functional, cell-based; settings: A549, 72 h
[11] = Induction of apoptosis in human LoVo/DX cells assessed as increase in caspase3/7 activity at 15 uM using Ac-DEVD-ACC as substrate pretreated for 24 hrs followed by substrate addition measured for 2 hrs by fluorescence assay relative to control; type: functional
[12] = system: LoVo; test: Induction of apoptosis in human LoVo cells assessed as loss of mitochondrial membrane potential at 15 uM after 24 hrs by JC-1 staining based flow cytometric method relative to control; type: functional
[13] = system: Mus musculus; test: Toxicity in BALB/c mdb mouse implanted with mouse 4T1 cells assessed as spleen weight at 450 umol/kg, ip administered five times weekly measured at 29 day post cell innoculum (reference value: 0.603 +/- 0.133 g); type: organism-based; settings: in vivo, 696 h
[14] = system: LoVo; test: Induction of apoptosis in human LoVo cells assessed as increase in caspase3/7 activity at >15 uM using Ac-DEVD-ACC as substrate pretreated for 24 hrs followed by substrate addition measured for 2 hrs by fluorescence assay; type: functional, cell-based
[15] = system: Mus musculus; test: Toxicity in BALB/c mdb mouse implanted with mouse 4T1 cells assessed as hematocrit at 450 umol/kg, ip administered five times weekly measured at 29 day post cell innoculum (reference value: 39.9 +/- 3.7 %); type: organism-based; settings: in vivo, 696 h
[16] = system: 4T1; test: Cytotoxicity against mouse 4T1 cells after 72 hrs by sulforhodamine B assay; type: functional, cell-based; settings: 4T1, 72 h
[17] = system: Mus musculus; test: Nephrotoxicity in BALB/c mdb mouse implanted with mouse 4T1 cells assessed as kidney weight at 450 umol/kg, ip administered five times weekly measured at 29 day post cell innoculum (reference value: 0.136 +/- 0.006 g); type: toxicity, organism-based; settings: in vivo, 696 h
[18] = system: MES-SA; test: Cytotoxicity against human MESSA cells after 72 hrs by sulforhodamine B assay; type: functional, cell-based
[19] = system: LoVo/DX; test: Induction of apoptosis in human LoVo/DX cells assessed as late apoptotic cells at 15 uM after 24 hrs by APC-Annexin-V/propidium iodide staining based flow cytometric method relative to control; type: functional
[20] = Cytotoxicity against human LoVo/DX cells assessed as cell death at >15 uM after 24 hrs; type: cell-based
[21] = system: Mus musculus; test: Toxicity in BALB/c mdb mouse implanted with mouse 4T1 cells assessed as serum ALT level at 450 umol/kg, ip administered five times weekly measured at 29 day post cell innoculum (reference value: 23.8 +/- 2.2 U/L); type: organism-based; settings: in vivo, 696 h
[22] = system: Mus musculus; test: Toxicity in BALB/c mdb mouse implanted with mouse 4T1 cells assessed as lung weight at 450 umol/kg, ip administered five times weekly measured at 29 day post cell innoculum (reference value: 0.2 +/- 0.018 g); type: organism-based; settings: in vivo, 696 h
[23] = system: Mus musculus; test: Toxicity in BALB/c mdb mouse implanted with mouse 4T1 cells assessed as serum PLT level at 450 umol/kg, ip administered five times weekly measured at 29 day post cell innoculum (reference value: 972 +/- 157 10^3/uL); type: organism-based; settings: in vivo, 696 h
[24] = system: Mus musculus; test: Toxicity in BALB/c mdb mouse implanted with mouse 4T1 cells assessed as body weight loss at 450 umol/kg, ip administered five times weekly starting from day 15 post cell innoculum; type: organism-based; settings: in vivo
[25] = system: LoVo; test: Induction of apoptosis in human LoVo cells assessed as increase in early apoptotic cells at 15 uM after 24 hrs by APC-Annexin-V/propidium iodide staining based flow cytometric method relative to control; type: functional
[26] = Resistance index, ratio of IC50 for human HL60/MX2 cells to IC50 for human HL60 cells; type: functional
[27] = system: LoVo; test: Induction of apoptosis in human LoVo cells assessed as increase in caspase3/7 activity at 15 uM using Ac-DEVD-ACC as substrate pretreated for 24 hrs followed by substrate addition measured for 2 hrs by fluorescence assay relative to control; type: functional
[28] = system: Mus musculus; test: Toxicity in BALB/c mdb mouse implanted with mouse 4T1 cells assessed as serum creatinine level at 450 umol/kg, ip administered five times weekly measured at 29 day post cell innoculum (reference value: 9.3 +/- 1.2 umol/L); type: organism-based; settings: in vivo, 696 h
[29] = system: 4T1; test: Anti-tumor activity against mouse 4T1 cells implanted in BALB/c mdb mouse assessed as tumor growth inhibition at 450 umol/kg, ip administered five times weekly measured on day 29 post cell innoculum relative to control; type: functional; settings: 4T1, ip, 696 h, read-out: TGI
[30] = system: Mus musculus; test: Toxicity in BALB/c mdb mouse implanted with mouse 4T1 cells assessed as body weight loss at 450 umol/kg, ip administered five times weekly measured on day 11; type: organism-based; settings: in vivo
[31] = system: LoVo/DX; test: Induction of apoptosis in human LoVo/DX cells assessed as increase in caspase3/7 activity at >15 uM using Ac-DEVD-ACC as substrate pretreated for 24 hrs followed by substrate addition measured for 2 hrs by fluorescence assay; type: functional, cell-based
[32] = system: LoVo; test: Cytotoxicity against human LoVo cells assessed as cell death at >15 uM after 24 hrs; type: cell-based
[33] = system: HL-60; test: Cytotoxicity against human HL60 cells after 72 hrs by sulforhodamine B assay; type: functional, cell-based; settings: HL-60, 72 h
[34] = system: 4T1; test: Anti-tumor activity against mouse 4T1 cells implanted in BALB/c mdb mouse assessed as lung metastasis at 450 umol/kg, ip administered five times weekly measured at 29 days post cell innoculum (reference value: 56 +/- 25); type: functional
[35] = system: LoVo/DX; test: Induction of apoptosis in human LoVo/DX cells assessed as loss of mitochondrial membrane potential at 15 uM after 24 hrs by JC-1 staining based flow cytometric method relative to control; type: functional
[36] = system: Mus musculus; test: Toxicity in BALB/c mdb mouse implanted with mouse 4T1 cells assessed as serum urea level at 450 umol/kg, ip administered five times weekly measured at 29 day post cell innoculum (reference value: 3.8 +/- […]); type: organism-based; settings: in vivo, 696 h
[37] = system: LoVo; test: Cell cycle arrest in human LoVo cells at 15 uM after 24 hrs by propidium iodide staining based flow cytometric method; type: functional
[38] = system: Mus musculus; test: Toxicity in BALB/c mdb mouse implanted with mouse 4T1 cells assessed as RBC level at 450 umol/kg, ip administered five times weekly measured at 29 day post cell innoculum (reference value: 8.6 +/- 0.9 10^6/uL); type: organism-based; settings: in vivo, 696 h
[39] = system: MES-SA/Dx5; test: Cytotoxicity against human MESSA/DX5 cells after 72 hrs by sulforhodamine B assay; type: functional, cell-based; settings: MES-SA/Dx5, 72 h
[40] = system: BALB/3T3; test: Cytotoxicity against mouse BALB/3T3 cells after 72 hrs by sulforhodamine B assay; type: cell-based; settings: BALB/3T3, 72 h
[41] = system: LoVo; test: Induction of apoptosis in human LoVo cells assessed as necrotic cells at 15 uM after 24 hrs by APC-Annexin-V/propidium iodide staining based flow cytometric method (reference value: 10%); type: functional
[42] = system: Mus musculus; test: Toxicity in BALB/c mdb mouse implanted with mouse 4T1 cells assessed as serum AST level at 450 umol/kg, ip administered five times weekly measured at 29 day post cell innoculum (reference value: 136 +/- 10.3 U/L); type: organism-based; settings: in vivo, 696 h
[43] = system: HL60/MX2; test: Cytotoxicity against human HL60/MX2 cells after 72 hrs by sulforhodamine B assay; type: functional, cell-based; settings: HL60/MX2, 72 h
[44] = system: Mus musculus; test: Hepatotoxicity in BALB/c mdb mouse implanted with mouse 4T1 cells assessed as liver weight at 450 umol/kg, ip administered five times weekly measured at 29 day post cell innoculum (reference value: 1.2 +/- 0.13 g); type: toxicity, organism-based; settings: in vivo, 696 h
[45] = system: Mus musculus; test: Toxicity in BALB/c mdb mouse implanted with mouse 4T1 cells assessed as body weight loss at 450 umol/kg, ip administered five times weekly measured 3 times weekly during compound dosing; type: organism-based; settings: in vivo
[46] = system: Mus musculus; test: Toxicity in BALB/c mdb mouse implanted with mouse 4T1 cells assessed as hemoglobin level at 450 umol/kg, ip administered five times weekly measured at 29 day post cell innoculum (reference value: 15.1 +/- 1.5 g/dl); type: organism-based; settings: in vivo, 696 h
[47] = system: LoVo/DX; test: Cell cycle arrest in human LoVo/DX cells at 15 uM after 24 hrs by propidium iodide staining based flow cytometric method; type: functional

Compound `O=P1(N(CCCl)CCCl)NCCCO1` (stereo unspecified) [CYCLOPHOSPHAMIDE ANHYDROUS] has an inhibition in vivo at 25 µmol/kg [1] of 33.3%.

With `CC(C)COP(=O)(CCN=C=S)OCC(C)C` the “Ratio IC50” value [2] was 5, the “Ratio IC50” value [3] was 5 and the IC50 [4] was 1.9 µM. The IC50 [5] was 2.6 µM, the “Ratio IC50” value [6] was 10 and the “Ratio IC50” value [7] was 10.

For `CCOP(=O)(CCCCCCN=C=S)OCC`, the Activity [8] was 201.2 ×10³ /uL, the Activity [9] was “inactive” and the IC50 [10] was 11.7 µM. For the same compound, the “fold change (FC)” value [11] was 3, the Activity [12] was “Active” and the Activity [13] was 0.493 g. The Activity [14] was “inactive”, the Activity [15] was 47.7% and the IC50 [16] was 3.1 µM. For the same compound, the Activity [17] was 0.14 g, the “Ratio IC50” value [2] was 5 and the IC50 [18] was 10.4 µM. For the same compound, the Activity [19] was “inactive”, the Activity [20] was “Toxic” and the Activity [21] was 28.2 U/L. For the same compound, the Activity [22] was 0.219 g, the Activity [23] was 751 ×10³ /uL and the Activity [24] was “Non-Toxic”. For the same compound, the Activity [25] was “inactive”, the “Ratio IC50” value [26] was 7.8 and the “fold change (FC)” value [27] was 3. For the same compound, the Activity [28] was 9.3 µmol/L, the inhibition in vivo at 450 µmol/kg [29] was 7.1% and the IC50 [4] was 2.1 µM. The Activity [30] was over 5%, the Activity [31] was “inactive” and the IC50 [5] was 3.9 µM. For the same compound, the Activity [32] was “Toxic”, the IC50 [33] was 0.5 µM and the Activity [34] was 62. The Activity [35] was “Active”, the Activity [36] was 4.6 mmol/L and the “Ratio IC50” value [7] was 10. The Activity [37] was “Active”, the Activity [38] was 10.1 ×10⁶ /uL and the IC50 [39] was 9.9 µM. For the same compound, the IC50 [40] was 17.5 µM, the Activity [41] was “Active” and the Activity [42] was 142.5 U/L. The IC50 [43] was 4 µM, the Activity [44] was 1.24 g and the Activity [45] was “<= 10%”. The Activity [46] was 17.3 g/dL and the Activity [47] was “Active”.
